Results reported in PubChem BioAssay AID296 (DTP/NCI, 2004).
Where “and” joins values, the source holds several entries; their conditions need not be identical. Equal entries are not always repeated. Records with an inconclusive call do not appear.

System: MX-1 breast xenograft, nude mice, tumor weight T/C
Assay: NCI In Vivo Anticancer Drug Screen. Data for tumor model Human Mammary Carcinoma MX-1 Xenograft (intrarenal inoculation) in NU/NU Swiss (nude) mice
Details: endpoint: mean tumor weight change, higher = larger tumour
Summary of the method: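 Compound dosed to mice with transplantable tumor; vehicle group as control. Endpoint survival or tumour size, reported as T/C.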

[1] = dose: 25.0 mg/kg/injection, schedule: Q01DX010 (sc), vehicle: saline
[2] = dose: 50.0 mg/kg/injection, schedule: Q01DX010 (sc), vehicle: saline
[3] = dose: 300.0 mg/kg/injection, schedule: Q04DX003 (sc), vehicle: saline with Tween-80
[4] = dose: 600.0 mg/kg/injection, schedule: Q04DX003 (sc), vehicle: saline with Tween-80
[5] = dose: 1200.0 mg/kg/injection, schedule: Q04DX003 (sc), vehicle: saline with Tween-80
[6] = dose: 2400.0 mg/kg/injection, schedule: Q04DX003 (sc), vehicle: saline with Tween-80
[7] = dose: 8.0 mg/kg/injection, schedule: Q01DX010 (sc), vehicle: saline
[8] = dose: 300.0 mg/kg/injection, schedule: Q04DX003 (sc), vehicle: Klucel (hydroxypropylcellulose) (HPC)
[9] = dose: 600.0 mg/kg/injection, schedule: Q04DX003 (sc), vehicle: Klucel (hydroxypropylcellulose) (HPC)
[10] = dose: 1200.0 mg/kg/injection, schedule: Q04DX003 (sc), vehicle: Klucel (hydroxypropylcellulose) (HPC)

O=P1(N(CCCl)CCCl)NCCCO1 (centres undefined)
T/C (dose: 6.25 mg/kg/injection, schedule: Q01DX010 (ip), vehicle: saline): 82 % of control | T/C (dose: 6.25 mg/kg/injection, schedule: Q01DX010 (sc), vehicle: saline): 56 % of control | T/C (dose: 12.5 mg/kg/injection, schedule: Q01DX010 (ip), vehicle: saline): -29 % of control | T/C (dose: 20.8 mg/kg/injection, schedule: Q04DX003 (ip), vehicle: saline): 8 % of control | T/C (dose: 25.0 mg/kg/injection, schedule: Q01DX010 (ip), vehicle: saline): -83 % of control | T/C [1]: -65 % of control and -47 % of control | T/C (dose: 41.66 mg/kg/injection, schedule: Q04DX003 (ip), vehicle: saline): -6 % of control | T/C (dose: 41.66 mg/kg/injection, schedule: Q04DX003 (sc), vehicle: saline): -53 % of control | T/C [2]: -93 % of control

CC[C@H](CC[C@@H](C)C1CC[C@H]2[C@@H]3CC=C4C[C@@H](OP(=O)(N5CC5)N5CC5)CC[C@]4(C)[C@H]3CC[C@]12C)C(C)C (some centres undefined)
T/C [3]: 71 % of control | T/C [4]: 113 % of control | T/C [5]: 65 % of control | T/C [6]: 62 % of control

CC(=O)CC(C)=O.CC(=O)CC(C)=O.O=N[O-].O=N[O-].[Co]
T/C (dose: 75.0 mg/kg/injection, schedule: Q04DX003 (sc), vehicle: saline with Tween-80): 72 % of control | T/C (dose: 150.0 mg/kg/injection, schedule: Q04DX003 (sc), vehicle: saline with Tween-80): 67 % of control

CCOC(=O)C(N)C[S][Sn]([CH3])([CH3])[Cl] (centres undefined)
T/C (dose: 75.0 mg/kg/injection, schedule: Q04DX003 (sc), vehicle: saline): 155 % of control

O=C1c2ccccc2C(=O)c2c3c(cc(NCCNCCO)c21)N(CCO)CCN3
T/C (dose: 12.5 mg/kg/injection, schedule: Q04DX003 (sc), vehicle: DMSO): 95 % of control | T/C (dose: 25.0 mg/kg/injection, schedule: Q04DX003 (sc), vehicle: DMSO): 101 % of control | T/C (dose: 50.0 mg/kg/injection, schedule: Q04DX003 (sc), vehicle: DMSO): 77 % of control | T/C (dose: 100.0 mg/kg/injection, schedule: Q04DX003 (sc), vehicle: DMSO): 111 % of control | T/C (dose: 200.0 mg/kg/injection, schedule: Q04DX003 (sc), vehicle: DMSO): 151 % of control

CC[N](CC)[Ge]([CH2]C)[CH2]C.CC[N](CC)[Ge]([CH2]C)[CH2]C
T/C (dose: 12.5 mg/kg/injection, schedule: Q01DX010 (sc), vehicle: saline): 190 % of control | T/C [1]: 106 % of control | T/C [2]: 106 % of control

CCCCNCCCNCCCNC(=O)c1csc(-c2csc(CCNC(=O)C(NC(=O)C(C)C(O)C(C)NC(=O)C(NC(=O)c3nc(C(CC(N)=O)NCC(N)C(N)=O)nc(N)c3C)C(OC3OC(CO)C(O)C(O)C3OC3OC(CO)C(O)C(OC(N)=O)C3O)c3cnc[nH]3)C(C)O)n2)n1 (centres undefined)
T/C [7]: 104 % of control | T/C (dose: 16.0 mg/kg/injection, schedule: Q01DX010 (sc), vehicle: saline): 73 % of control | T/C (dose: 32.0 mg/kg/injection, schedule: Q01DX010 (sc), vehicle: saline): 39 % of control

COc1cc(Cc2nccc3cc(OC)c(OC)cc23)c(C(C)=O)c(OC)c1
T/C (dose: 40.0 mg/kg/injection, schedule: Q01DX010 (sc), vehicle: saline): 103 % of control | T/C (dose: 80.0 mg/kg/injection, schedule: Q01DX010 (sc), vehicle: saline): 103 % of control | T/C (dose: 160.0 mg/kg/injection, schedule: Q01DX010 (sc), vehicle: saline): 93 % of control

CC(=O)Nc1ccc(C(=O)C=O)cc1
T/C (dose: 200.0 mg/kg/injection, schedule: Q01DX010 (sc), vehicle: saline with Tween-80): 55 % of control

CCC1=C[C@H]2CN(CCc3c([nH]c4ccccc34)[C@@](C(=O)OC)(c3cc4c(cc3OC)N(C)[C@H]3[C@@](O)(C(=O)NC)[C@H](OC(C)=O)[C@]5(CC)C=CCN6CC[C@]43[C@@H]65)C2)C1
T/C (dose: 1.0 mg/kg/injection, schedule: Q04DX003 (sc), vehicle: water): 48 % of control | T/C (dose: 2.0 mg/kg/injection, schedule: Q04DX003 (sc), vehicle: water): 45 % of control

O=S1(=O)C=C(c2ccccc2)C(c2ccccc2)=C1
T/C [3]: 80 % of control | T/C [4]: 71 % of control | T/C [5]: 83 % of control | T/C [6]: 74 % of control

O=C(O)Cc1cccc2c(=O)cc(-c3ccccc3)oc12
T/C (dose: 100.0 mg/kg/injection, schedule: Q04DX003 (ip), vehicle: suspension in saline): 75 % of control

N#C[C@H](OC1OC(COC2OC(CO)C(O)C(O)C2O)C(O)C(O)C1O)c1ccccc1 (some centres undefined)
T/C (dose: 450.0 mg/kg/injection, schedule: Q04DX003 (sc), vehicle: saline): 63 % of control | T/C (dose: 900.0 mg/kg/injection, schedule: Q04DX003 (sc), vehicle: saline): 69 % of control | T/C (dose: 1800.0 mg/kg/injection, schedule: Q04DX003 (sc), vehicle: saline): 70 % of control | T/C (dose: 3600.0 mg/kg/injection, schedule: Q04DX003 (sc), vehicle: saline): 67 % of control

[O-][n+]1c(CN2CCCCC2)nc2cccc3c2c1-c1ccccc1-3
T/C [8]: 94 % of control | T/C [9]: 102 % of control | T/C [10]: 105 % of control | T/C (dose: 2400.0 mg/kg/injection, schedule: Q04DX003 (sc), vehicle: Klucel (hydroxypropylcellulose) (HPC)): 70 % of control

Cc1cn(C2CC(O)C(CO)O2)c(=O)[nH]c1=O (centres undefined)
T/C (dose: 800.0 mg/kg/injection, schedule: Q04DX003 (sc), vehicle: saline): 105 % of control | T/C (dose: 1600.0 mg/kg/injection, schedule: Q04DX003 (sc), vehicle: saline): 89 % of control | T/C (dose: 3200.0 mg/kg/injection, schedule: Q04DX003 (sc), vehicle: saline): 50 % of control | T/C (dose: 6400.0 mg/kg/injection, schedule: Q04DX003 (sc), vehicle: saline): 62 % of control

COc1cccc2c1C(=O)c1c(O)c3c(c(O)c1C2=O)C[C@@](O)(C(=O)CO)C[C@@H]3OC1CC(N)CC(C)O1 (some centres undefined)
T/C (dose: 0.19 mg/kg/injection, schedule: Q01DX010 (sc), vehicle: water): 43 % of control | T/C (dose: 0.37 mg/kg/injection, schedule: Q01DX010 (sc), vehicle: water): 51 % of control | T/C (dose: 0.75 mg/kg/injection, schedule: Q01DX010 (sc), vehicle: water): 61 % of control | T/C (dose: 1.5 mg/kg/injection, schedule: Q01DX010 (sc), vehicle: water): 59 % of control

COC12C(COC(N)=O)C3=C(C(=O)C(C)=C(N)C3=O)N1CC1C2N1C (centres undefined)
T/C [7]: -96 % of control and -95 % of control

OCC1OC(n2cnc3c2NC=NC[C@H]3O)CC1O (some centres undefined)
T/C (dose: 1.0 mg/kg/injection, schedule: Q01DX010 (sc), vehicle: water): 124 % of control | T/C (dose: 2.0 mg/kg/injection, schedule: Q01DX010 (sc), vehicle: water): 41 % of control | T/C (dose: 8.0 mg/kg/injection, schedule: Q01DX010 (sc), vehicle: water): 28 % of control

CCCCn1cnc2c(=S)nc[nH]c21
T/C (dose: 300.0 mg/kg/injection, schedule: Q04DX003 (sc), vehicle: suspension in saline): 119 % of control | T/C (dose: 600.0 mg/kg/injection, schedule: Q04DX003 (sc), vehicle: suspension in saline): 81 % of control | T/C (dose: 1024.0 mg/kg/injection, schedule: Q04DX003 (sc), vehicle: suspension in saline): 67 % of control | T/C (dose: 1200.0 mg/kg/injection, schedule: Q04DX003 (sc), vehicle: suspension in saline): 16 % of control | T/C (dose: 1600.0 mg/kg/injection, schedule: Q04DX003 (sc), vehicle: suspension in saline): 49 % of control | T/C (dose: 2000.0 mg/kg/injection, schedule: Q04DX003 (sc), vehicle: suspension in saline): 4 % of control

Nc1nc(N)c2cc(CNc3ccc(C(=O)NC(CC(=O)O)CC(=O)O)cc3)ccc2n1
T/C (dose: 25.0 mg/kg/injection, schedule: Q04DX003 (sc), vehicle: Klucel (hydroxypropylcellulose) (HPC)): 86 % of control | T/C (dose: 50.0 mg/kg/injection, schedule: Q04DX003 (sc), vehicle: Klucel (hydroxypropylcellulose) (HPC)): 96 % of control | T/C (dose: 100.0 mg/kg/injection, schedule: Q04DX003 (sc), vehicle: Klucel (hydroxypropylcellulose) (HPC)): 75 % of control | T/C (dose: 200.0 mg/kg/injection, schedule: Q04DX003 (sc), vehicle: Klucel (hydroxypropylcellulose) (HPC)): 85 % of control

O=NN(CCCl)C(=O)Oc1ccc(OC(=O)N(CCCl)N=O)cc1
T/C (dose: 150.0 mg/kg/injection, schedule: Q04DX003 (sc), vehicle: Klucel (hydroxypropylcellulose) (HPC)): 107 % of control | T/C [8]: 95 % of control | T/C [9]: 91 % of control | T/C [10]: 117 % of control

CC(=O)[C@]1(O)Cc2c(O)c3c(c(O)c2[C@@H](OC2CC(N)C(O)C(C)O2)C1)C(=O)c1c(O)cccc1C3=O (some centres undefined)
T/C (dose: 0.25 mg/kg/injection, schedule: Q01DX010 (sc), vehicle: saline): 167 % of control | T/C (dose: 0.5 mg/kg/injection, schedule: Q01DX010 (sc), vehicle: saline): 68 % of control
